The values below come from patent publication US20250099625A1, “TANDEM MOLECULAR FLUORESCENCE REPORTERS FOR DETECTION OF TUMOR-INFILTRATING LEUKOCYTES” (Nanyang Technological University, priority 2021, published 2025).

The test system of this test is 4T1 tumor. The experiment in a line: Therapeutic efficacy, 4T1 tumor-bearing mice.

Experimental: (c) Tumor growth curves (n=6) and (d) overall survival curves (n=6) of 4T1 tumor-bearing mice. […] 95% confidence intervals were obtained by two-sided Student t-test analysis. […] Data are presented as mean±SD and analyzed by two-tailed Student's t-test.
FIG. 47 depicts the tumor control rate and body weights of mice. […] (c) Body weights of 4T1 tumor-bearing mice after intraperitoneal injection of saline, Oxa (6 mg/kg), aPD-L1 (10 mg/kg) and aPD-L1/Oxa at day 0, 2 and 4. […] Statistical significance was performed by two-tailed Student's t-test. ns: not significant, *P<0.05, **P<0.01, ***P<0.001, ****P<0.0001.
After tumor inoculation for one week, 4T1 tumor-bearing mice were administrated with aPD-L1 (10 mg/kg), Oxa (6 mg/kg) or the combination of aPD-L1 and Oxa (aPD-L1/Oxa) intraperitoneally every two days for three times.
The tumor control rate was calculated with the following formulas:
Vt0 means the volume of tumor on day 0, Vt means the volume at certain time, c means the control group (saline, without irradiation), and s means the group needed calculation.

The compound `O=C1[O][Pt]2([NH][C@@H]3CCCC[C@H]3[NH]2)[O]C1=O` [Oxa, oxaliplatin] displayed a survival rate of 50%. For the same compound, the “tumor control rate (TCR)” value (intraperitoneal, every two days for three times) is on record as 48%.
